Experimental data published in PMC13429874, “ABHD2 activity is not required for the non-genomic action of progesterone on human sperm” (Human Reproduction (Oxford, England), 2026).

Tests used:
[1] = biological target: T1, full-length human ABHD2 (ABHD2^FL) (Homo sapiens, UniProt P08910); assay: ABHD2^FL enzymatic activity assay with 7-HCA substrate; format: biochemical; conditions: Supplementary Table S2; read-out: IC50 measured in ABHD2^FL in the 7-HCA Assay
T1 construct: TEV site-eGFP-8xHis (C, cleaved yes); made in house; host or cells: SF9 insect cells (baculovirus)
T1 sequence (P08910 1-425): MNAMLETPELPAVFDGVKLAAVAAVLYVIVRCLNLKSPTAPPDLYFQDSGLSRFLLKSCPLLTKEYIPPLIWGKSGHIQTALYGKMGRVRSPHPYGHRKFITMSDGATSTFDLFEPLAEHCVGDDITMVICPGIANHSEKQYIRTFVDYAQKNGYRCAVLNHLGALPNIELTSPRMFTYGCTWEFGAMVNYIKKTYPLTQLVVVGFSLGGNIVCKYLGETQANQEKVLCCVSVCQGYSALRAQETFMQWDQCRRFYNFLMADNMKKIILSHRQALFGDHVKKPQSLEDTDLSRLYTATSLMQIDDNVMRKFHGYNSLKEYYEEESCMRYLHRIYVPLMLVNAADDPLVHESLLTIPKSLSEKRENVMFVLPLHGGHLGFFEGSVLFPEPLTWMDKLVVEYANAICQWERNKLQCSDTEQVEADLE

ABHD2^L33–E425 = biological target: T2, ABHD2^L33–E425 (Homo sapiens, UniProt P08910); assay: Differential scanning fluorimetry (DSF) with purified ABHD2^L33–E425; format: binding
T2 construct: expression for ABHD2 amino acids L33–E425, in which a predicted transmembrane domain (amino acids 1–32) is removed; His6-FLAG (N); made in house; host or cells: E. coli BL21(DE3)-R3-pRARE2
T2 sequence (P08910 33-425): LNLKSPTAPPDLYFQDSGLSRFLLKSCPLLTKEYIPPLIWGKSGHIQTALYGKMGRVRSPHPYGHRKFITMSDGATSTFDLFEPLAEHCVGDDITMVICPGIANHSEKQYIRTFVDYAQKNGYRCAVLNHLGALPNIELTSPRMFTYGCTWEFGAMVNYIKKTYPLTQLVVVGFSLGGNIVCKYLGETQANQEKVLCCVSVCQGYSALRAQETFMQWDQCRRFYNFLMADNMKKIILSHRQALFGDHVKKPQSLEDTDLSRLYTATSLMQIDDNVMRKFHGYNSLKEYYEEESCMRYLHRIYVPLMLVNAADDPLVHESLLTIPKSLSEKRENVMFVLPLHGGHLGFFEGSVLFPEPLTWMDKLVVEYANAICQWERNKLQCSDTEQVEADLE

human sperm = assay: Sperm intracellular Ca2+ measurements (Fluo-4); format: cell-based
Procedure: Measurements of the changes in sperm intracellular Ca^2+ concentration ([Ca^2+]i) were performed on motile human sperm purified by swim-up. Semen samples were allowed to liquefy for 15–60 min at 37°C, and 0.5–1 ml liquified semen was layered beneath 4 ml human tubal fluid medium (HTF; 97.8 mM NaCl, 4.69 mM KCl, 0.2 mM MgSO4, 0.37 mM KH2PO4, 2.04 mM CaCl2, 2.78 mM glucose, 0.33 mM sodium pyruvate, 21.4 mM lactic acid, 4 mM NaHCO3, and 21 mM HEPES pH 7.35 adjusted with NaOH) in 50 ml conical tubes. Motile sperm were allowed to swim up into the HTF for 60–90 min at 37°C, collected, washed twice (700 × g, 20 min, 37°C), and resuspended in HTF containing 3 mg/ml HSA at a density of 1 × 10^7 sperm/ml. Changes of [Ca^2+]i in motile human sperm were measured as previously described ([Rennhack et al., 2018]), using a fluorescence plate-reader assay (FLUOstar Omega, BMG LABTECH) with 384-well plates. Swim-up-purified sperm were loaded with Fluo4-AM (5 μM, Thermo Fisher Scientific, Waltham, MA, USA) and Pluronic F-127 (0.05% w/v) for 20 min at 37°C. Excess dye was removed by centrifugation at 700 × g for 5 min, supernatant removal, and resuspension to 5 × 10^6 sperm/ml in HTF.
For recordings, wells of a 384-well plate were filled with 50 μl of the dye-loaded sperm suspension. Fluorescence was excited at 480 nm, and emission was recorded at 520 nm using a plate reader (Fluostar Omega, BMG Labtech). After establishing a baseline for at least 60 s, 25 µl test compound solutions were added and the fluorescence response recorded. After 4 min, 7.5 µl progesterone was added to reach a final concentration of 3 µM, and ensuing changes in fluorescence were recorded. For the analysis of compound-evoked Ca^2+ signal, basal fluorescence (F0) was determined prior to compound addition. For the determination of inhibitory effects of compounds on progesterone-evoked Ca^2+ signals, basal fluorescence (F0) was determined before progesterone addition. The CatSper inhibitor TS150 ([Schierling et al., 2023]) was used as a control. Each compound was tested in technical duplicates across ≥3 biological replicates, using sperm from at least two donors, and performed on at least two separate days.
Data analysis and graphical representation were performed with GraphPad Prism software version 10.6.1 (San Diego, CA, USA). Changes in Fluo-4 fluorescence are depicted as ΔF/F0 (%), i.e. the change in fluorescence (ΔF) relative to the mean basal fluorescence (F0) before application of buffer or compounds/ligands, to correct for intra- and inter-experimental variations in basal fluorescence among individual wells or to correct for compound-evoked changes in fluorescence. Signal amplitudes evoked in the presence of compounds were normalized to the maximal signal amplitude evoked by 3 µM progesterone in the absence of the compound (set to 1) to ease comparisons between experiments.

IC50 [1]: 1200 nM | effect on melting temperature / thermal stability of ABHD2^L33-E425 (DSF), in words (ABHD2^L33–E425; 10 µM compound, 30 min pre-incubation): increased melting temperature | ΔTm shift for ABHD2^L33-425 determined by DSF (ABHD2^L33–E425; purified protein): 14 °C
Compound: CC1CCCN(C(=O)c2ccccc2C(=O)c2ccccc2)C1 (centres unmarked) [Compound 4]
compound-evoked changes in [Ca2+]i (human sperm; 10 µM compound): only minuscule changes | effect on progesterone-induced Ca2+ signal (amplitude and waveform) (human sperm; compounds 10 µM, TS150 60 µM, progesterone 3 µM): similar
